Patent US20170129916A1, “NOVEL BETULINIC PROLINE IMIDAZOLE DERIVATIVES AS HIV INHIBITORS” (HETERO RESEARCH FOUNDATION, priority 2014, published 2017)

Key:
[1] = tested on: HIV-1 strains, for e.g., 92HT599; assay: Antiviral activity: p24 estimation in MT-2 cells infected with HIV-1; assay type: cell-based; conditions: Human immunodeficiency virus 1, MT2, MT-2 cells infected with HIV-1, p24, ~96 hours; for IC50: read-out: Antiviral activity IC50 (nM) Efficacy IC50
In short: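 MT-2 cells infected with HIV-1 (e.g. 92HT599), plated at 30,000 cells/well with compound (DMSO ≤1%) and incubated ~96 h. Supernatant p24 quantified by kit; percent inhibition relative to vehicle controls.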

[2] = Single dose oral pharmacokinetic study; assay type: in vivo; conditions: mouse, mice, 30 mg/kg, plasma; for AUC(0-t): read-out: Mice oral PK @30 mg/kg AUC 0-t; for Cmax: read-out: Mice oral PK @30 mg/kg Cmax
In short: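 Rats or mice received 30 mg/kg orally at 10 ml/kg dose volume. Retro-orbital blood was taken into K3 EDTA at defined intervals under light ether anesthesia and centrifuged to plasma. Plasma levels were measured by LC-MS-MS.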

Compound	inhibition at 0.1 µM [1] [%]	inhibition at 1 µM [1] [%]	IC50 [1] [nM]	AUC(0-t) [2] [µg·h/mL]	Cmax [2] [µg/mL]
C=C(C)[C@@H]1CC[C@]2(C(=O)N3C[C@H](OC)C[C@H]3c3nc(-c4ccccc4)c[nH]3)CC[C@]3(C)[C@H](CC[C@@H]4[C@@]5(C)CC[C@H](OC(=O)[C@H]6C[C@@H](C(=O)O)C6(C)C)C(C)(C)[C@@H]5CC[C@]43C)[C@@H]12 [Compound 32, (1R,3S)-3-((((1R,3aS,5aR,5bR,7aR,9S,11aR,11bR,13aR,13bR)-3a-((2S,4R)-4-methoxy-2-(4-phenyl-1H-imidazol-2-yl)pyrrolidine-1-carbonyl)-5a,5b,8,8,11a-pentamethyl-1-(prop-1-en-2-yl)icosahydro-1H-cyclopenta[a]chrysen-9-yl)oxy)carbonyl)-2,2-dimethylcyclobutane-1-carboxylic acid]	60	99	23.3	316	13.9
C=C(C)[C@@H]1CC[C@]2(C(=O)N3CCC[C@H]3c3ncc(C(F)(F)F)[nH]3)CC[C@]3(C)[C@H](CC[C@@H]4[C@@]5(C)CC[C@H](OC(=O)[C@H]6C[C@@H](C(=O)O)C6(C)C)C(C)(C)[C@@H]5CC[C@]43C)[C@@H]12 [Compound 34, (1R,3S)-2,2-dimethyl-3-((((1R,3aS,5aR,5b,7aR,9S,11aR,11bR,13aR,13bR)-5a,5b,8,8,11a-pentamethyl-1-(prop-1-en-2-yl)-3a-((S)-2-(5-(trifluoromethyl)-1H-imidazol-2-yl)pyrrolidine-1-carbonyl)icosahydro-1H-cyclopenta[a]chrysen-9-yl)oxy)carbonyl)cyclobutane-1-carboxylic acid]	86	100	6.66	417	18.7
C=C(C)[C@@H]1CC[C@]2(C(=O)N3CCC[C@H]3c3nc(C)c(C)[nH]3)CC[C@]3(C)[C@H](CC[C@@H]4[C@@]5(C)CC[C@H](OC(=O)[C@H]6C[C@@H](C(=O)O)C6(C)C)C(C)(C)[C@@H]5CC[C@]43C)[C@@H]12 [Compound 35, (1R,3S)-3-((((1R,3aS,5aR,5bR,7aR,9S,11aR,11bR,13aR,13bR)-3a-((S)-2-(4,5-dimethyl-1H-imidazol-2-yl)pyrrolidine-1-carbonyl)-5a,5b,8,8,11a-pentamethyl-1-(prop-1-en-2-yl)icosahydro-1H-cyclopenta[a]chrysen-9-yl)oxy)carbonyl)-2,2-dimethylcyclobutane-1-carboxylic acid]	100	100	2.81	250	14
C=C(C)[C@@H]1CC[C@]2(C(=O)N3CCC[C@H]3c3ncc[nH]3)CC[C@]3(C)[C@H](CC[C@@H]4[C@@]5(C)CC[C@H](OC(=O)[C@H]6C[C@@H](C(=O)O)C6(C)C)C(C)(C)[C@@H]5CC[C@]43C)[C@@H]12 [Compound 36, (1R,3S)-3-((((1R,3aS,5aR,5bR,7aR,9S,11aR,11bR,13aR,13bR)-3a-((S)-2-(1H-imidazol-2-yl)pyrrolidine-1-carbonyl)-5a,5b,8,8,11a-pentamethyl-1-(prop-1-en-2-yl)icosahydro-1H-cyclopenta[a]chrysen-9-yl)oxy)carbonyl)-2,2-dimethylcyclobutane-1-carboxylic acid]	98	100	1.22	158	10.8
C=C(C)[C@@H]1CC[C@]2(C(=O)N3CCC[C@H]3c3nc4ccccc4[nH]3)CC[C@]3(C)[C@H](CC[C@@H]4[C@@]5(C)CC[C@H](OC(=O)[C@H]6C[C@@H](C(=O)O)C6(C)C)C(C)(C)[C@@H]5CC[C@]43C)[C@@H]12 [Compound 37]	99	99	3.21	487	16.8
C=C(C)[C@@H]1CC[C@]2(C(=O)N3C[C@H](OCCOC)C[C@H]3c3nc(-c4ccccc4)c[nH]3)CC[C@]3(C)[C@H](CC[C@@H]4[C@@]5(C)CC[C@H](OC(=O)CC(C)(C)C(=O)O)C(C)(C)[C@@H]5CC[C@]43C)[C@@H]12 [Compound 43, 4-(((1R,3aS,5aR,5bR,7aR,9S,11aR,11bR,13aR,13bR)-3a-((2S,4R)-4-(2-methoxyethoxy)-2-(4-phenyl-1H-imidazol-2-yl)pyrrolidine-1-carbonyl)-5a,5b,8,8,11a-pentamethyl-1-(prop-1-en-2-yl)icosahydro-1H-cyclopenta[a]chrysen-9-yl)oxy)-2,2-dimethyl-4-oxobutanoic acid]			0.3	333	15.4
C=C(C)[C@@H]1CC[C@]2(C(=O)N3C[C@H](OCCOC)C[C@H]3c3nc(-c4ccc(F)cc4)c[nH]3)CC[C@]3(C)[C@H](CC[C@@H]4[C@@]5(C)CC[C@H](OC(=O)CC(C)(C)C(=O)O)C(C)(C)[C@@H]5CC[C@]43C)[C@@H]12 [Compound 45, 4-(((1R,3aS,5aR,5bR,7aR,9S,11aR,11bR,13aR,13bR)-3a-((2S,4R)-2-(4-(4-fluorophenyl)-1H-imidazol-2-yl)-4-(2-methoxyethoxy)pyrrolidine-1-carbonyl)-5a,5b,8,8,11a-pentamethyl-1-(prop-1-en-2-yl)icosahydro-1H-cyclopenta[a]chrysen-9-yl)oxy)-2,2-dimethyl-4-oxo butanoic acid]			0.3	275	11.5
C=C(C)[C@@H]1CC[C@]2(C(=O)N3CCC[C@H]3c3ncc(-c4ccc(OC)cc4)[nH]3)CC[C@]3(C)[C@H](CC[C@@H]4[C@@]5(C)CC[C@H](OC(=O)CC(C)(C)C(=O)O)C(C)(C)[C@@H]5CC[C@]43C)[C@@H]12 [Compound 46, 4-(((1R,3aS,5aR,5bR,7aR,9S,11aR,11bR,13aR,13bR)-3a-((S)-2-(5-(4-methoxyphenyl)-1H-imidazol-2-yl)pyrrolidine-1-carbonyl)-5a,5b,8,8,11a-pentamethyl-1-(prop-1-en-2-yl)icosahydro-1H-cyclopenta[a]chrysen-9-yl)oxy)-2,2-dimethyl-4-oxobutanoic acid]			11	153	8.71
C=C(C)[C@@H]1CC[C@]2(C(=O)N3CCC[C@H]3c3nnc(-c4ccccc4)[nH]3)CC[C@]3(C)[C@H](CC[C@@H]4[C@@]5(C)CC[C@H](OC(=O)CC(C)(C)C(=O)O)C(C)(C)[C@@H]5CC[C@]43C)[C@@H]12 [Compound 48, 2,2-dimethyl-4-oxo-4-(((1R,3aS,5aR,5bR,7aR,9S,11aR,11bR,13aR,13bR)-5a,5b,8,8,11a-pentamethyl-3a-((S)-2-(5-phenyl-4H-1,2,4-triazol-3-yl)pyrrolidine-1-carbonyl)-1-(prop-1-en-2-yl)icosahydro-1H-cyclopenta[a]chrysen-9-yl)oxy)butanoic acid]			5.8	299	20.8
CC1([C@@H]2CC[C@]3(C(=O)N4CCC[C@H]4c4ncc(-c5cccc(F)c5)[nH]4)CC[C@]4(C)[C@H](CC[C@@H]5[C@@]6(C)CC[C@H](OC(=O)[C@H]7C[C@@H](C(=O)O)C7(C)C)C(C)(C)[C@@H]6CC[C@]54C)[C@@H]23)CC1 [Compound 50, (1R,3S)-3-((((1R,3aS,5aR,5bR,7aR,9S,11aR,11bR,13aR,13bR)-3a-((S)-2-(5-(3-fluorophenyl)-1H-imidazol-2-yl)pyrrolidine-1-carbonyl)-5a,5b,8,8,11a-pentamethyl-1-(1-methylcyclopropyl)icosahydro-1H-cyclopenta[a]chrysen-9-yl)oxy)carbonyl)-2,2-dimethylcyclobutane-1-carboxylic acid]			0.35	358	13.9
CC1([C@@H]2CC[C@]3(C(=O)N4CCC[C@H]4c4ncc(-c5ccccn5)[nH]4)CC[C@]4(C)[C@H](CC[C@@H]5[C@@]6(C)CC[C@H](OC(=O)[C@H]7C[C@@H](C(=O)O)C7(C)C)C(C)(C)[C@@H]6CC[C@]54C)[C@@H]23)CC1 [Compound 51, (1R,3S)-2,2-dimethyl-3-((((1R,3aS,5aR,5bR,7aR,9S,11aR,11bR,13aR,13bR)-5a,5b,8,8,11a-pentamethyl-1-(1-methylcyclopropyl)-3a-((S)-2-(5-(pyridin-2-yl)-1H-imidazol-2-yl)pyrrolidine-1-carbonyl)icosahydro-1H-cyclopenta[a]chrysen-9-yl)oxy)carbonyl)cyclobutane-1-carboxylic acid]			43.3	160	4.93
COCCO[C@@H]1C[C@@H](c2nc(-c3ccc(F)cc3)c[nH]2)N(C(=O)[C@]23CC[C@@H](C4(C)CC4)[C@@H]2[C@H]2CC[C@@H]4[C@@]5(C)CC[C@H](OC(=O)[C@H]6C[C@@H](C(=O)O)C6(C)C)C(C)(C)[C@@H]5CC[C@@]4(C)[C@]2(C)CC3)C1 [Compound 55, (1R,3S)-3-((((1R,3aS,5aR,5bR,7aR,9S,11aR,11bR,13aR,13bR)-3a-((2S,4R)-2-(4-(4-fluorophenyl)-1H-imidazol-2-yl)-4-(2-methoxyethoxy)pyrrolidine-1-carbonyl)-5a,5b,8,8,11a-pentamethyl-1-(1-methylcyclopropyl)icosahydro-1H-cyclopenta[a]chrysen-9-yl)oxy)carbonyl)-2,2-dimethylcyclobutane-1-carboxylic acid]			1.04	381	14.3
